Measured values reported in patent US20140322151A1, “Use Of Isosorbide Caprylates/Caprates In Deodorants And Antiperspirants” (CLARIANT INTERNATIONAL LTD, priority 2011, published 2014).

Test system: axillary body odor
Assay: 48-hour sniff test: reduction in body odor after single application of roll-on deodorant base formulation
Assay type: in vivo, human
Conditions: base formulation I
Method: To determine the reduction in body odor, the following base formulations for roll-on deodorants were used.
Various substances active against body odor were incorporated into the base formulations, for example as a further constituent of component D. These were the following substances:
To determine the reduction in body odor, the deodorizing action was carried out in the 48-hour sniff test, for which the procedure is as follows:
20 subjects are selected according to the following criteria: • female and male • at least 18 years old • nonsmokers • clinically healthy • readily detectable auxiliary body odor under both armpits
The two armpits of the subjects are preconditioned over several days, i.e. no kind of antiperspirants and deodorants are used and a pH-skin-neutral, unperfumed liquid soap is used.
On the 20 pretreated subjects, in the left or right axilla, after a sing application of 250-300 mg of the base formulation comprising active substances against body odor in the component D, three olfactory experts evaluate the axillary body odor and product scent as to intensity before and after treatment over a total of 48 hours.
The opposite axilla is not treated and serves as a standard for determining the relative intensity decrease in axillary body odor compared to the axilla which has been treated with the base formulation comprising active substances against body odor in component D.
As well as the starting value directly before the single application (after 0 hours) and the end value 48 hours after the single application, the intensity of the axillary body odor and product scent is also evaluated after 24 hours. The intensity of the body odor or perfume scent was assessed by the three olfactory experts according to the following scale: • 1=not detectable • 2=slightly detectable • 3=detectable • 4=strongly detectable • 5=very strongly detectable
Comparing the intensities of the body odor (or perfume scent) from the treated axilla and the untreated axilla gives, by virtue of the formula below, the relative intensity decrease in axillary body odor as a result of a single application of 250-300 mg of the base formulation comprising active substances against body odor in component D.

SMILES | Result after 24 hours (relative intensity decrease in axillary body odor) (24 hours, 0.1% by weight, 5% by weight propylene glycol as solubilizer) [%] | Result after 48 hours (relative intensity decrease in axillary body odor) (48 hours, 0.1% by weight, 5% by weight propylene glycol as solubilizer) [%] | Result after 24 hours (relative intensity decrease in axillary body odor) (24 hours after single application, 7.6% by weight) [%] | Result after 48 hours (relative intensity decrease in axillary body odor) (48 hours after single application, 7.6% by weight) [%]
Cc1cc(CC(C)CC(C)(C)C)n(O)c(=O)c1 (stereo not shown) [Piroctonol] | 15 | 10 |  | 
CCCCCCC(O)CO (stereo not shown) [octanediol] |  |  | 18 | 13
